ChEMBL document CHEMBL1201862, “PubChem BioAssay data set” (2004)
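In this assay, cells in 96-well plates receive the compound at five concentrations for 48 hours. Endpoints are linearly interpolated between the surrounding concentrations. Abbreviation: GI50, concentration required for 50% inhibition of growth.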 Calls of active or inactive are those of the source. Rule as the data show it: active = GI50 up to about 1.1 µM and inactive = higher.

Assays:
Experiment in all cases: NCI tumour cell line growth inhibition, 48 h
786-0 = test system: 786-0
A549 = test system: A549
CCRF-CEM = test system: CCRF-CEM
KM12 = test system: KM12
MCF7 = test system: MCF7
MDA-N = test system: MDA-N
MOLT-4 = test system: MOLT-4
RPMI-8226 = test system: RPMI-8226
SF-295 = test system: SF-295
SK-MEL-5 = test system: SK-MEL-5
SK-OV-3 = test system: SK-OV-3
SNB-75 = test system: SNB-75
SR = test system: SR
SW-620 = test system: SW-620
UACC-257 = test system: UACC-257
UO-31 = test system: UO-31
A498 = test system: A498
SF-539 = test system: SF-539

SMILES	GI50 (786-0)	GI50 (A549)	GI50 (CCRF-CEM)	GI50 (KM12)	GI50 (MCF7)	GI50 (MDA-N)	GI50 (MOLT-4)	GI50 (RPMI-8226)	GI50 (SF-295)	GI50 (SK-MEL-5)	GI50 (SK-OV-3)	GI50 (SNB-75)	GI50 (SR)	GI50 (SW-620)	GI50 (UACC-257)	GI50 (UO-31)	GI50 (A498)	GI50 (SF-539)
Cc1ccc(S(=O)(=O)N/N=C2/CCC3(O)CC2(C)CCC2[C@H]3CC2(C)C)cc1 (stereo not given in full)	31.8 µM (inactive)	27.3 µM (inactive)	12 µM (inactive)	32.6 µM (inactive)	35.5 µM (inactive)	30.7 µM (inactive)	11.4 µM (inactive)	38.4 µM (inactive)	25.1 µM (inactive)	16.5 µM (inactive)	32.4 µM (inactive)	21.4 µM (inactive)	35.9 µM (inactive)	27.9 µM (inactive)	37.8 µM (inactive)	25.7 µM (inactive)	–	–
C[C@H](CCC1=NCCN1)[C@H]1CC[C@H]2[C@@H]3CC[C@@H]4C[C@H](O)CC[C@]4(C)[C@H]3C[C@H](O)[C@]12C	16.3 µM (inactive)	–	10.7 µM (inactive)	11.8 µM (inactive)	12.7 µM (inactive)	14.6 µM (inactive)	3.13 µM (inactive)	11.3 µM (inactive)	15.6 µM (inactive)	11.8 µM (inactive)	18 µM (inactive)	2.37 µM (inactive)	–	19.9 µM (inactive)	15.4 µM (inactive)	18.6 µM (inactive)	20.8 µM (inactive)	13.2 µM (inactive)
O=C(CC1C=CCS1(=O)=O)NCc1ccccc1 (stereo not given)	> 100 µM (inactive)	> 100 µM (inactive)	> 100 µM (inactive)	> 100 µM (inactive)	> 100 µM (inactive)	> 100 µM (inactive)	> 100 µM (inactive)	–	> 100 µM (inactive)	> 100 µM (inactive)	> 100 µM (inactive)	> 100 µM (inactive)	> 100 µM (inactive)	> 100 µM (inactive)	> 100 µM (inactive)	> 100 µM (inactive)	–	> 100 µM (inactive)
CC1(C)CC[C@]2(C)[C@@H](O)C[C@]3(C)C(=CC[C@@H]4[C@@]5(C)CC[C@H](O)C(C)(C)[C@@H]5CC[C@]43C)[C@@H]2C1	33.3 µM (inactive)	31.7 µM (inactive)	> 100 µM (inactive)	41.4 µM (inactive)	37.9 µM (inactive)	> 100 µM (inactive)	> 100 µM (inactive)	–	29.4 µM (inactive)	35.3 µM (inactive)	14.9 µM (inactive)	–	–	> 100 µM (inactive)	49.5 µM (inactive)	20.4 µM (inactive)	34.3 µM (inactive)	–
Cc1ccc(Nc2nc(=O)c3c4ccccc4n(C(=O)OC(C)(C)C)c3s2)cc1	15.3 µM (inactive)	28.8 µM (inactive)	30.3 µM (inactive)	16.7 µM (inactive)	–	–	53 µM (inactive)	17.8 µM (inactive)	23 µM (inactive)	13.2 µM (inactive)	> 100 µM (inactive)	> 100 µM (inactive)	12.8 µM (inactive)	28.4 µM (inactive)	51.1 µM (inactive)	5.9 µM (inactive)	39.1 µM (inactive)	26.6 µM (inactive)
CC(=O)Nc1[nH]c(C#N)nc1C#N	> 100 µM (inactive)	> 100 µM (inactive)	> 100 µM (inactive)	> 100 µM (inactive)	> 100 µM (inactive)	> 100 µM (inactive)	> 100 µM (inactive)	> 100 µM (inactive)	> 100 µM (inactive)	> 100 µM (inactive)	> 100 µM (inactive)	> 100 µM (inactive)	–	> 100 µM (inactive)	> 100 µM (inactive)	> 100 µM (inactive)	> 100 µM (inactive)	> 100 µM (inactive)
Cc1nc2ccc(F)cc2c2c1CCS2	78.7 µM (inactive)	> 100 µM (inactive)	41 µM (inactive)	64.9 µM (inactive)	56.4 µM (inactive)	–	38.1 µM (inactive)	38.8 µM (inactive)	94.4 µM (inactive)	30.3 µM (inactive)	–	38.6 µM (inactive)	56.8 µM (inactive)	> 100 µM (inactive)	71.9 µM (inactive)	65.9 µM (inactive)	> 100 µM (inactive)	> 100 µM (inactive)
Cc1cc2[nH]c3c(C#N)c(-c4ccccc4)c(/N=N/c4cccc(C(F)(F)F)c4)c(=O)n3c2cc1C	35.8 µM (inactive)	25.3 µM (inactive)	5.3 µM (inactive)	31.6 µM (inactive)	50.4 µM (inactive)	28.3 µM (inactive)	–	5.35 µM (inactive)	42.6 µM (inactive)	15.7 µM (inactive)	32.4 µM (inactive)	> 100 µM (inactive)	–	35.8 µM (inactive)	26.8 µM (inactive)	31.3 µM (inactive)	88.5 µM (inactive)	97.5 µM (inactive)
CCOP(=O)(OCC)C(C)(CC)NC (stereo not given)	> 100 µM (inactive)	> 100 µM (inactive)	0.935 µM (active)	> 100 µM (inactive)	> 100 µM (inactive)	> 100 µM (inactive)	> 100 µM (inactive)	–	> 100 µM (inactive)	> 100 µM (inactive)	> 100 µM (inactive)	> 100 µM (inactive)	–	> 100 µM (inactive)	> 100 µM (inactive)	> 100 µM (inactive)	> 100 µM (inactive)	> 100 µM (inactive)
O=c1c2cc([N+](=O)[O-])ccc2[nH]n1Cc1ccccn1	> 100 µM (inactive)	> 100 µM (inactive)	> 100 µM (inactive)	> 100 µM (inactive)	–	> 100 µM (inactive)	> 100 µM (inactive)	> 100 µM (inactive)	> 100 µM (inactive)	> 100 µM (inactive)	–	> 100 µM (inactive)	> 100 µM (inactive)	> 100 µM (inactive)	> 100 µM (inactive)	> 100 µM (inactive)	> 100 µM (inactive)	> 100 µM (inactive)
CCC1(CC)C(=O)NN(C(=O)c2ccc(Cl)cc2)C1=O	> 100 µM (inactive)	> 100 µM (inactive)	> 100 µM (inactive)	> 100 µM (inactive)	> 100 µM (inactive)	> 100 µM (inactive)	> 100 µM (inactive)	> 100 µM (inactive)	> 100 µM (inactive)	> 100 µM (inactive)	> 100 µM (inactive)	> 100 µM (inactive)	> 100 µM (inactive)	> 100 µM (inactive)	> 100 µM (inactive)	> 100 µM (inactive)	–	–
O=C1c2ccccc2-c2c1c(-c1ccc(O)cc1O)nc1ccc3ccccc3c21	> 100 µM (inactive)	> 100 µM (inactive)	> 100 µM (inactive)	> 100 µM (inactive)	79.4 µM (inactive)	> 100 µM (inactive)	> 100 µM (inactive)	> 100 µM (inactive)	> 100 µM (inactive)	–	> 100 µM (inactive)	> 100 µM (inactive)	–	> 100 µM (inactive)	> 100 µM (inactive)	> 100 µM (inactive)	> 100 µM (inactive)	> 100 µM (inactive)
CC(=O)c1ccccc1NCC(=O)Nn1cnc2ccc(S(=O)(=O)Nc3ccccc3C(C)=O)cc2c1=O	> 100 µM (inactive)	> 100 µM (inactive)	> 100 µM (inactive)	> 100 µM (inactive)	> 100 µM (inactive)	> 100 µM (inactive)	> 100 µM (inactive)	> 100 µM (inactive)	> 100 µM (inactive)	–	> 100 µM (inactive)	> 100 µM (inactive)	> 100 µM (inactive)	> 100 µM (inactive)	> 100 µM (inactive)	> 100 µM (inactive)	–	> 100 µM (inactive)
CC(=O)N[C@H]1CCCC[C@@H]1OC(C)=O	> 100 µM (inactive)	–	–	> 100 µM (inactive)	> 100 µM (inactive)	> 100 µM (inactive)	> 100 µM (inactive)	> 100 µM (inactive)	> 100 µM (inactive)	> 100 µM (inactive)	> 100 µM (inactive)	> 100 µM (inactive)	–	> 100 µM (inactive)	> 100 µM (inactive)	–	> 100 µM (inactive)	–
CC(=O)c1cccc(Nc2nc3ccccc3c3occc23)c1	16.7 µM (inactive)	13.5 µM (inactive)	> 100 µM (inactive)	49.7 µM (inactive)	25.1 µM (inactive)	–	> 100 µM (inactive)	> 100 µM (inactive)	16.2 µM (inactive)	12.7 µM (inactive)	17.8 µM (inactive)	22.7 µM (inactive)	47 µM (inactive)	–	> 100 µM (inactive)	–	9.98 µM (inactive)	15.5 µM (inactive)
COc1ccc(/C=N\NC(=O)Nc2cccc3ccccc23)cc1	11.4 µM (inactive)	45.4 µM (inactive)	> 100 µM (inactive)	11.7 µM (inactive)	4.44 µM (inactive)	2.7 µM (inactive)	–	> 100 µM (inactive)	–	28.2 µM (inactive)	–	9.98 µM (inactive)	–	51.6 µM (inactive)	34.9 µM (inactive)	35.3 µM (inactive)	18.2 µM (inactive)	14 µM (inactive)
COc1c(OC)c(OC)c2c(=O)c(OC)c(-c3ccc4c(c3)OCO4)oc2c1OC	> 100 µM (inactive)	53.2 µM (inactive)	23.8 µM (inactive)	> 100 µM (inactive)	> 100 µM (inactive)	> 100 µM (inactive)	39.7 µM (inactive)	–	> 100 µM (inactive)	44.8 µM (inactive)	> 100 µM (inactive)	65.3 µM (inactive)	–	> 100 µM (inactive)	> 100 µM (inactive)	57.8 µM (inactive)	66.2 µM (inactive)	> 100 µM (inactive)
